For orientation: melting point means the temperature of the solid-liquid transition.

In the case of `CN1CCN(c2ccc(F)cc2-c2ccc(C(=O)NCc3ccc(Cl)cc3)s2)CC1.O` (hydrate or solvate), the melting point is 175 to 176.5 °C.

For the compound `CN1CCN(c2ccccc2-c2ccc(C(=O)NCc3ccccc3)s2)CC1.Cl.O.O` (hydrate or solvate), the melting point is 145 °C (dec.).

With `CN1CCN(c2ccccc2-c2ccc(C(=O)NCc3ccc(Cl)cc3)[nH]2)CC1.Cl`, the melting point is 80 °C (dec.).

In the case of `CN1CCN(c2ccccc2-c2ccc(C(=O)Nc3ccc(Cl)cc3)o2)CC1.Cl.O` (hydrate or solvate), the melting point is 145 °C (dec.).

`COc1ccc(CNC(=O)c2ccc(-c3ccccc3N3CCN(C)CC3)s2)cc1.Cl`: the melting point was 140 °C (dec.).

Regarding `CN1CCN(c2ccccc2-c2ccc(C(=O)NCc3ccc(Cl)cc3)o2)CC1.Cl.O` (hydrate or solvate), the melting point was 110 °C (dec.).

For the compound `CN1CCN(c2ccccc2-c2ccc(C(=O)Nc3ccc(Cl)cc3)s2)CC1.Cl`, the melting point is 149 °C (dec.).

Take `CN1CCN(c2ccccc2-c2ccc(C(=O)NCc3ccc(Cl)cc3)s2)CC1.Cl.O` (hydrate or solvate): the melting point fell in the range of 256 to 257 °C.

Compound `CN1CCN(c2ccccc2-c2ccc(C(=O)NCc3ccc(F)cc3)s2)CC1.Cl.O` (hydrate or solvate) registered a melting point of 187 to 188 °C.

(Values after patent US6537995B2, “Heterocyclic carboxamides” (Pfizer Inc., priority 1998, dated 2003).)
